Measurements published in US20160108038A1, “BICYCLIC ARYL SULFIDE AND ARYL SULFOXIDE DERIVATIVES AS PEST CONTROL AGENT” (BAYER CROPSCIENCE AKTIENGESELLSCHAFT, priority 2013, published 2016).
Where two headings read alike, the source gives them in different places.

Tests used:
[1] = log P determination by HPLC on reversed-phase columns (C 18), analogous to OECD Guideline 117; assay type: physicochemical; conditions: for chromatographic logP: reversed-phase C18 HPLC column
Protocol: The log P values were determined analogously to OECD Guideline 117 (EC Directive 92/69/EEC) by HPLC (high-performance liquid chromatography) using reversed-phase columns (C 18), by the following methods: [a] The LC-MS determination in the acidic range was effected at pH 2.7 with 0.1% aqueous formic acid and acetonitrile (contains 0.1% formic acid) as eluents; linear gradient from 10% acetonitrile to 95% acetonitrile. log P^[a] is also referred to as log P(HCOOH). [b] LC-MS determination in the neutral range was effected at pH 7.8 with 0.001 molar aqueous ammonium hydrogencarbonate solution and acetonitrile as eluents; linear gradient from 10% acetonitrile to 95% acetonitrile. log P^[…] is also referred to as log P(neutral).

Tetranychus urticae = Tetranychus urticae spray test, OP-resistant; assay type: in vivo; conditions: 500 g/ha, bean leaf discs, after 6 days
Protocol: Tetranychus urticae—Spray Test, OP-Resistant
(§1) To produce a suitable preparation of active compound, 1 part by weight of active compound is dissolved using the stated parts by weight of solvent and made up with water containing an emulsifier concentration of 1000 ppm until the desired concentration is attained. To produce further test concentrations, the preparation is diluted with emulsifier-containing water.
Discs of bean leaves (Phaseolus vulgaris) infested with all stages of the greenhouse red spider mite (Tetranychus urticae) are sprayed with an active compound preparation of the desired concentration.
After 6 days, the efficacy in % is determined. 100% means that all the spider mites have been killed; 0% means that none of the spider mites have been killed.

Boophilus microplus = Boophilus microplus injection test; assay type: in vivo; conditions: 20 μg/animal, injection into engorged adult female cattle ticks, after 7 days; 100% = no fertile eggs
Protocol: Boophilus microplus—Injection Test Solvent: dimethyl sulfoxide To produce a suitable preparation of active compound, 10 mg of active compound are mixed with 0.5 ml of solvent and the concentrate is diluted with solvent to the desired concentration. 1 μl of the active compound solution is injected into the abdomen of 5 engorged adult female cattle ticks (Boophilus microplus). The animals are transferred into dishes and kept in a climate-controlled room. Efficacy is assessed after 7 days by laying of fertile eggs. Eggs which are not visibly fertile are stored in a climate-controlled cabinet until the larvae hatch after about 42 days. An efficacy of 100% means that none of the ticks has laid any fertile eggs; 0% means that all the eggs are fertile.

Phaedon cochleariae = Phaedon cochleariae spray test; assay type: in vivo; conditions: 500 g/ha, Chinese cabbage leaf discs, after 7 days
Protocol: Phaedon cochleariae—Spray Test
as §1
After 7 days, the efficacy in % is determined. 100% means that all the beetle larvae have been killed; 0% means that no beetle larvae have been killed.

Meloidogyne incognita = Meloidogyne incognita test; assay type: in vivo; conditions: 20 ppm, lettuce, after 14 days; 100% = no galls
Protocol: Meloidogyne incognita Test Solvent: 125.0 parts by weight of acetone To produce a suitable preparation of active compound, 1 part by weight of active compound is mixed with the stated amount of solvent and the concentrate is diluted with water to the desired concentration. Vessels are filled with sand, active compound solution, an egg/larvae suspension of the southern root-knot nematode (Meloidogyne incognita) and lettuce seeds. The lettuce seeds germinate and the plants develop. The galls develop on the roots. After 14 days, the nematicidal efficacy in % is determined by the formation of galls. 100% means that no galls were found; 0% means that the number of galls on the treated plants corresponds to the untreated control.

[2] = acidic range, pH 2.7, 0.1% aqueous formic acid and acetonitrile, read-out: logP(HCOOH)
[3] = neutral range, pH 7.8, 0.001 molar aqueous ammonium hydrogencarbonate and acetonitrile, read-out: logP(neutral)
[4] = acidic range, pH 2.7, 0.1% aqueous formic acid and acetonitrile
[5] = neutral range, pH 7.8, 0.001 molar aqueous ammonium hydrogencarbonate and acetonitrile

Row | Compound | chromatographic logP [1, 2] | chromatographic logP [1, 3] | efficacy (spider mites killed) (Tetranychus urticae) [%] | logP(HCOOH) [1, 4] | logP(neutral) [1, 5] | efficacy (laying of fertile eggs) (Boophilus microplus) [%] | efficacy (beetle larvae killed) (Phaedon cochleariae) [%] | nematicidal efficacy (formation of galls) (Meloidogyne incognita) [%]
1 | Cc1cc(F)c(NC(=O)c2cccnc2N)cc1SCC(F)(F)F [2-Amino-N-{2-fluoro-4-methyl-5-[(2,2,2-trifluoroethyl)sulfanyl]phenyl}nicotinamide] | 1.7 | 2.71 |  |  |  |  |  | 
2 | Cc1nc2ncccc2c(=O)o1 [2-Methyl-4H-pyrido[2,3-d][1,3]oxazin-4-one] | 0.42 | 0.43 |  |  |  |  |  | 
3 | Cc1cc(F)c(-n2cnc3ccncc3c2=O)cc1SCC(F)(F)F [Compound 1] |  |  | 100 | 2.54 | 2.56 |  |  | 
4 | Cc1cc(F)c(-n2cnc3ncccc3c2=O)cc1SCC(F)(F)F [Compound 2, 3-{2-Fluoro-4-methyl-5-[(2,2,2-trifluoroethyl)sulfanyl]phenyl}-2-pyrido [2,3-d]pyrimidin-4(3H)-one] | 2.43 | 2.43 | 90 |  |  |  |  | 
5 | O=c1c2cccnc2ncn1-c1cc(SCC(F)(F)F)c(Cl)cc1Cl [Compound 3] |  |  |  | 2.73 | 2.68 |  |  | 
6 | Cc1cc(C)c(-n2cnc3ncccc3c2=O)cc1SCC(F)(F)F [Compound 4] |  |  | 100 | 2.53 | 2.54 |  |  | 
7 | Cc1cc(F)c(-n2cnc3ncccc3c2=O)cc1[S+]([O-])CC(F)(F)F (stereo not drawn) [Compound 5, 3-{2-Fluoro-4-methyl-5-[(2,2,2-trifluoroethyl)sulfinyl]phenyl}pyrido[2,3-d]pyrimidin-4(3H)-one] | 1.56 | 1.56 | 90 |  |  |  |  | 
8 | Cc1cc(C)c([S+]([O-])CC(F)(F)F)cc1-n1cnc2ncccc2c1=O (stereo not drawn) [Compound 6] |  |  | 100 | 1.62 | 1.61 | 100 |  | 
9 | O=c1c2cccnc2ncn1-c1cc([S+]([O-])CC(F)(F)F)c(Cl)cc1Cl (stereo not drawn) [Compound 7] |  |  | 90 | 1.98 | 1.84 |  |  | 
10 | Cc1cc(F)c(-n2c(C)nc3ncccc3c2=O)cc1SCC(F)(F)F [Compound 8, 3-{2-Fluoro-4-methyl-5-[(2,2,2-trifluoroethyl)sulfanyl]phenyl}-2-mehtylpyrido[2,3-d]pyrimidin-4(3H)-one] | 2.55 | 2.52 | 100 |  |  |  |  | 
11 | Cc1cc(F)c(-n2cnc3cccnc3c2=O)cc1SCC(F)(F)F [Compound 9] |  |  | 100 | 2.33 |  |  |  | 
12 | Cc1cc(F)c(-n2c(C)nc3ncccc3c2=O)cc1[S+]([O-])CC(F)(F)F (stereo not drawn) [Compound 10, 3-{2-Fluoro-4-methyl-5-[(2,2,2-trifluoroethyl)sulfinyl]phenyl}-2-mehtylpyrido[2,3-d]pyrimidin-4(3H)-one] | 1.66 | 1.64 | 100 |  |  |  |  | 
13 | Cc1cc(F)c(-n2cnc3cccnc3c2=O)cc1[S+]([O-])CC(F)(F)F (stereo not drawn) [Compound 11] |  |  | 100 | 1.49 | 1.46 |  | 100 | 
14 | Cc1cc(F)c(-n2cnc3cnccc3c2=O)cc1SCC(F)(F)F [Compound 12] |  |  |  | 2.55 | 2.56 |  |  | 
15 | Cc1cc(F)c(-n2cnc3cnccc3c2=O)cc1[S+]([O-])CC(F)(F)F (stereo not drawn) [Compound 13] |  |  | 100 | 1.60 | 1.63 |  |  | 
16 | Cc1cc(F)c(-n2cnc3ccncc3c2=O)cc1[S+]([O-])CC(F)(F)F (stereo not drawn) [Compound 14] |  |  | 90 | 1.61 | 1.64 | 100 |  | 
17 | Cc1cc(Cl)c(-n2cnc3ncccc3c2=O)cc1SCC(F)(F)F [Compound 15] |  |  |  | 2.62 | 2.62 |  |  | 
18 | Cc1cc(C)c(-n2c(C)nc3ncccc3c2=O)cc1SCC(F)(F)F [Compound 16] |  |  |  | 2.63 | 2.60 |  |  | 
19 | Cc1cc(C)c([S+]([O-])CC(F)(F)F)cc1-n1c(C)nc2ncccc2c1=O (stereo not drawn) [Compound 17] |  |  | 90 | 1.67 | 1.67 |  |  | 90
20 | Cc1cc(Cl)c(-n2cnc3ncccc3c2=O)cc1[S+]([O-])CC(F)(F)F (stereo not drawn) [Compound 18] |  |  | 100 | 1.77 | 1.73 |  |  | 
